The compounds below were run against T1, 20S catalytic subunit of the proteasome (multicatalytic proteinase complex) (Bos taurus, UniProt Q32KL2) (assay: 20S proteasome chymotryptic activity, fluorogenic peptide cleavage). Details: 50 μM succinyl-leu-leu-val-tyr-7-amino-4-methyl coumarin, 15 minutes at 37° C, pH7.5.
T1 construct: was purified to homogeneity from bovine brain according to published methods; from tissue; host or cells: bovine brain
Assay type: biochemical, bovine
Procedure: Compounds of this invention prepared according to the method of Example 1 were tested as follows. The 20S catalytic subunit of the proteasome (also known as the multicatalytic proteinase complex) was purified to homogeneity from bovine brain according to published methods (Wilk S. and Orlowski, M, 40 842 J. Neurochem (1983)). The chymotryptic activity of the complex is measured by the increase in fluorescence following cleavage of the substrate peptide succinyl-leucine-leucine-valine-tyrosine-7-amino-4-methyl coumarin. The standard in vitro assay consists of 2 μg 20S proteasome, 0.1-100 μg/ml proteasome inhibitor in 200 μl 50 mM HEPES, containing 0.1% sodium dodecyl sulphate, pH7.5. The proteolytic reaction is initiated by the addition of 50 μM fluorogenic peptide substrate and allowed to progress for 15 minutes at 37° C. The reaction is terminated by the addition of 100 μl of 100 mM acetate buffer, pH4.0. The rate of proteolysis is directly proportional to the amount of liberated aminomethylcoumarin which is measured by fluorescent spectroscopy (EX 370 nm, EM 430 nm).

Structure (SMILES)	IC50 [µg/mL]
COc1ccc2c(c1)C(CC(=O)NC(CCCNC(=N)N)C(=O)NC(CC(C)C)C(N)=O)CC2=O (mixture of isomers) [Compound 93]	> 10
COc1ccc2c(c1)C(CC(=O)NC(CC(=O)O)C(=O)NC(CC(C)C)C(N)=O)CC2=O (mixture of isomers) [Compound 94]	> 10
COc1ccc2c(c1)C(CC(=O)NC(CC(N)=O)C(=O)NC(CC(C)C)C(N)=O)CC2=O (mixture of isomers) [Compound 95]	10
COc1ccc2c(c1)C(CC(=O)NC(CC(N)=O)C(=O)NC(CC(C)C)C(N)=O)CC2=O (mixture of isomers) [Compound 96]	> 10
COc1ccc2c(c1)C(CC(=O)NC(CCC(=O)O)C(=O)NC(CC(C)C)C(N)=O)CC2=O (mixture of isomers) [Compound 97]	> 10
COc1ccc2c(c1)C(CC(=O)NC(CCC(N)=O)C(=O)NC(CC(C)C)C(N)=O)CC2=O (mixture of isomers) [Compound 98]	> 10
COc1ccc2c(c1)C(CC(=O)NC(Cc1c[nH]cn1)C(=O)NC(CC(C)C)C(N)=O)CC2=O (mixture of isomers) [Compound 99]	> 10
COc1ccc2c(c1)C(CC(=O)NC(CCCCN)C(=O)NC(CC(C)C)C(N)=O)CC2=O (mixture of isomers) [Compound 100]	> 10
COc1ccc2c(c1)C(CC(=O)NC(Cc1ccc(O)cc1)C(=O)NC(CC(C)C)C(N)=O)CC2=O (mixture of isomers) [Compound 102]	> 10
COc1ccc2c(c1)C(CC(=O)NC(Cc1c[nH]c3ccccc13)C(=O)NC(CC(C)C)C(N)=O)CC2=O (mixture of isomers) [Compound 103]	> 10
COc1ccc2c(c1)C(CC(=O)NC(CC(C)C)C(=O)NC(CC(C)C)C(=O)NC(C(N)=O)C(C)C)CC2=O (mixture of isomers) [Compound 123]	> 10
COc1ccc2c(c1)C(CC(=O)NC(CC(C)C)C(=O)NC(CC(C)C)C(=O)NC(C(N)=O)C(C)C)CC2=O (mixture of isomers) [Compound 124]	> 10
COc1ccc2c(c1)C(CC(=O)NC(CC(C)C)C(=O)NC(CC(C)C)C(=O)NC(C)C(N)=O)CC2=O (mixture of isomers) [Compound 125]	> 10
COc1ccc2c(c1)C(CC(=O)NC(CC(C)C)C(=O)NC(CC(C)C)C(=O)NC(C)C(N)=O)CC2=O (mixture of isomers) [Compound 126]	> 10
COc1ccc2c(c1)C(CC(=O)NC(CC(C)C)C(=O)NC(CC(C)C)C(=O)NC(Cc1ccccc1)C(N)=O)CC2=O (mixture of isomers) [Compound 127]	> 10
COc1ccc2c(c1)C(CC(=O)NC(CC(C)C)C(=O)NC(CC(C)C)C(=O)NC(Cc1ccccc1)C(N)=O)CC2=O (mixture of isomers) [Compound 128]	> 10
COc1ccc2c(c1)C(CC(=O)NC(CC(C)C)C(=O)NC(CCCNC(=N)N)C(N)=O)CC2=O (mixture of isomers) [Compound 129]	> 10
COc1ccc2c(c1)C(CC(=O)NC(CC(C)C)C(=O)NC(CC(=O)O)C(N)=O)CC2=O (mixture of isomers) [Compound 130]	> 10
COc1ccc2c(c1)C(CC(=O)NC(CC(C)C)C(=O)NC(CC(N)=O)C(N)=O)CC2=O (mixture of isomers) [Compound 131]	> 10
COc1ccc2c(c1)C(CC(=O)NC(CC(C)C)C(=O)NC(CC1CCCCC1)C(N)=O)CC2=O (mixture of isomers) [Compound 132]	> 10
COc1ccc2c(c1)C(CC(=O)NC(CC(C)C)C(=O)NC(CCC(=O)O)C(N)=O)CC2=O (mixture of isomers) [Compound 133]	> 10
CCCCC(NC(=O)C(CC(C)C)NC(=O)CC1CC(=O)c2ccc(OC)cc21)C(N)=O (mixture of isomers) [Compound 134]	> 10

Source: patent US5834487A, “Inhibition of 26S and 20S proteasome by indanones” (CV Therapeutics, priority 1996, dated 1998)
